Measurements as given in patent publication US20090181898A1, “ABUSE-RESISTANT A[…]” (SHIRE LLC, priority 2002, published 2009).
Several values for one entry are separate records, joined by “and”; a condition that tells them apart may be missing. Equal entries are not always repeated.

Assay: Oral pharmacokinetics of L-lysine-d-amphetamine diHCl compared to d-amphetamine sulfate (ELISA)
Conditions: rat; for Plasma concentrations of d-amphetamine, individual animals: 3 mg/kg d-amphetamine base, Rat #1-#4; for Mean plasma d-amphetamine concentration: n=4

## d-amphetamine
3 mg/kg
  AUC (0-8 h) of d-amphetamine: 341 ± 35 ng·h/mL
  Cmax of d-amphetamine: 111 ± 27 ng/mL
  Mean Peak of d-amphetamine: 129 ng/mL
  Mean Peak, Percent Amphetamine: 100%
0.5 h
  Plasma concentrations of d-amphetamine, individual animals: 144 ng/mL and 157 ng/mL and 101 ng/mL and 115 ng/mL
1 h
  Plasma concentrations of d-amphetamine, individual animals: 152 ng/ml and 78 ng/ml (2×) and 115 ng/ml
3 h
  Plasma concentrations of d-amphetamine, individual animals: 34 ng/mL and 45 ng/mL and 72 ng/mL and 38 ng/mL
5 h
  Plasma concentrations of d-amphetamine, individual animals: 20 ng/mL and 14 ng/mL and 12 ng/mL and 15 ng/mL
8 h
  Plasma concentrations of d-amphetamine, individual animals: 3 ng/ml (2×) and 2 ng/ml (2×)
3 mg/kg, 0.5 h
  Mean plasma d-amphetamine concentration: 129 ng/mL
3 mg/kg, 1 h
  Mean plasma d-amphetamine concentration: 106 ng/mL
3 mg/kg, 3 h
  Mean plasma d-amphetamine concentration: 47 ng/mL
3 mg/kg, 5 h
  Mean plasma d-amphetamine concentration: 15 ng/mL
3 mg/kg, 8 h
  Mean plasma d-amphetamine concentration: 2 ng/mL
